In brackets after ≈: the same amount, converted by molar mass.
Tests used:
[1] = tested on: pandemic flu H1/415, A/Hong Kong/415742/2009, A(H1N1)pdm09; conditions: To et al. (2016); cited from earlier work
Norovirus = Norovirus test; format: cell-based
RSV = experiment: antiviral test RSV; format: cell-based; conditions: human respiratory syncytial virus
Influenza A H1N1 = experiment: antiviral test Influenza A H1N1; format: cell-based; conditions: Influenza A virus
[2] = tested on: seasonal influenza A(H3N2) virus; conditions: To et al. (2016); cited from earlier work
[3] = tested on: avian-origin influenza A (H7N9); conditions: cited from earlier work
a virus = conditions: virus of Chan et al., 2013, p. 612; cited from earlier work

COc1c(C)c2c(c(O)c1C/C=C(\C)CCC(=O)O)C(=O)OC2 [mycophenolic acid, 6-(4-hydroxy-6-methoxy-7-methyl-3-oxo-1,3-dihydroisobenzofuran-5-yl)-4-methyl-hex-4-enoic acid]
effectiveness against virus [1]: effective | EC50 (Norovirus): 0.151 µg/mL (≈ 0.471 µM) | EC50 (RSV): < 0.1 µg/mL | EC50 (Influenza A H1N1): < 0.1 µg/mL | effectiveness against virus [2]: effective | effectiveness against virus [3]: effective | EC50 (a virus): 0.17 µg/mL (≈ 0.531 µM)
